Experimental data as given in patent US20250282812A1, “ANTIVIRAL NUCLEOSIDE ANALOGUE, AND PHARMACEUTICAL COMPOSITION AND USE THEREOF” (SHANGHAI INSTITUTE OF MATERIA MEDICA , CHINESE ACADEMY OF …, priority 2022, published 2025).

Tests used:
[1] = in vitro; details: dog
[2] = test system: influenza virus (IFV) A/California/07/2009 (H1N1) pdm09 strain; test: In vitro activity against influenza virus (CPE, CCK8, MDCK cells); type: cell-based; details: 120 h, read-out: IFV (MDCK) EC50
[3] = test system: wild-type SFSV virus (SFTSV-WT); type: in vivo; details: A129 mice infected with SFTSV-WT; X28-1 20 mpk intragastric once daily Day 0 to Day 6
[4] = test system: respiratory syncytial virus (RSV A2); test: In vivo efficacy for respiratory syncytial virus (RSV) in mice
[5] = test system: SFTSV-Nluc; set-up: species or system A129 mice; details: mouse
[6] = test system: respiratory syncytial virus (RSV) A long strain; test: In vitro activity against respiratory syncytial virus (CPE, CCK8, HEp-2 cells); type: cell-based; details: human respiratory syncytial virus, 120 h, MOI=0.02, 5 days
[7] = test system: SFTSV-Nluc; test: microbe, parasite or virus in culture; type: cell-based, severe fever with thrombocytopenia syndrome virus (SFTSV); details: Severe fever with thrombocytopenia syndrome virus, Vero, 48 h
[8] = Cytotoxicity in HEp-2 cells (CCK8); details: human
[9] = Pharmacokinetic evaluation in rats (Test Example 2); type: in vivo; details: rat, nucleoside X28-1 in plasma, male SD rats, single iv 5.0 mg/kg
Protocol: A total of 12 male SD rats, divided into intravenous (IV) and intragastric (PO) groups, were fasted for 12 h before the experiment (the intravenous group was not fasted), with free access to water, and were fed together 2 h after administration. Compound X28-1 was intragastrically administered at a dose of 10.0 mg/kg (n=3) and intravenously injected at a dose of 5.0 mg/kg (n=3), and both compound X52 and compound X55 were intragastrically administered at a dose of 18.0 mg/kg (n=3), with a vehicle of 5% DMSO+5% enthanol+40% PEG400+50% saline. For the intravenous group, 0.2-0.3 mL of blood was collected via the jugular vein at 5 min, 0.25 h, 0.5 h, 1.0 h, 2.0 h, 4.0 h, 8.0 h, and 24.0 h after administration, and for the intragastric group, at 5 min, 0.5 h, 1.0 h, 2.0 h, 4.0 h, 6.0 h, 8.0 h, and 24.0 h after administration. The blood samples were transferred into heparin sodium anticoagulation tubes, gently mixed uniformly, and centrifuged at 2000 g for 10 min. Plasma was isolated and frozen in a refrigerator at −70° C. for later detection. The concentration of nucleoside X28-1 in the plasma was determined by the LC-MS-MS method and pharmacokinetic parameters were calculated.

[10] = Pharmacokinetic evaluation in rats (Test Example 1); type: in vivo; details: rat, nucleoside X28-1 in plasma, male SD rats, single iv 10.0 mg/kg
Protocol: Male SD rats, divided into intravenous (iv) and intragastric (po) groups, were fasted for 16 h before the experiment (the intravenous group was not fasted), with free access to water, and were fed together 2 h after administration. Compound X28-1 was intravenously injected at a dose of 10.0 mg/kg (n=3), and compounds X22, X51, and X102 (n=3) were intragastrically administered in equimolar amounts to X28-1, which were 15.5 mg/kg, 16.5 mg/kg, and 16.6 mg/kg, respectively, with a vehicle of 5% DMSO+5% enthanol+40% PEG400+50% saline. 0.2-0.3 mL of blood was collected via the jugular vein at 5 min (intravenous only), 0.25 h, 0.5 h, 1.0 h, 2.0 h, 4.0 h, 6.0 h, 8.0 h, and 24 h after administration. The blood samples were transferred into heparin sodium anticoagulation tubes, gently mixed uniformly, and centrifuged at 2000 g for 10 min. Plasma was isolated and frozen in a refrigerator at −70° C. for later detection. The concentration of nucleoside X28-1 in the plasma was determined by the LC-MS-MS method and pharmacokinetic parameters were calculated.

[11] = Pharmacokinetic evaluation in cynomolgus monkeys (Test Example 5); type: in vivo; details: cynomolgus monkey, nucleoside X28-1 in plasma, male cynomolgus monkeys, single iv 1.0 mg/kg
Protocol: Male cynomolgus monkeys were fasted for 12 h before intragastric administration, with free access to water, and were fed together 2 h after administration. X28-1 was intravenously administered at a dose of 1.0 mg/kg (n=3) and intragastrically administered at a dose of 5.0 mg/kg (n=3), and X219 hydrochloride was intragastrically administered at a dose of 10.7 mg/kg (n=3), with a vehicle for the compounds of 5% DMSO+5% enthanol+40% PEG400+50% saline. 0.5 mL of blood was collected via the forelimb vein at 5 min (intravenous only), 0.25 h, 0.5 h, 1.0 h, 2.0 h, 4.0 h, 6.0 h, 8.0 h, and 24.0 h after administration. The blood samples were transferred into heparin sodium anticoagulation tubes, gently shaken and mixed uniformly, put on ice, and immediately centrifuged (4° C., 2000 g, 10 min). After centrifugation, 100 μL of plasma was accurately pipetted and added to a plastic tube containing 400 μL of methanol solution with an internal standard, temporarily stored on dry ice after being vortexed, and then stored in an ultra-low temperature refrigerator for later detection. The concentration of nucleoside X28-1 in the plasma was determined by the LC-MS-MS method and pharmacokinetic parameters were calculated.

[12] = Stability test of compounds in solutions at different pH values

For `O=c1ccn([C@@H]2O[C@](F)(CO)[C@@H](O)[C@H]2O)c(=O)[nH]1` [Compound X28-1, reference compound], the CC50 [1] was greater than 10 µM, the EC50 [2] was less than 0.37 µM and the “change in the body weight” value [3] was “no significant change”. For the same compound, the survival rate [3] was 100%, the “reduction in the pulmonary viral load compared with the vehicle group” value ([4]; 10 mpk intragastric once daily, Day 4) was “about 0.4 log10” and the “change in the body weight” value ([4]; RSV A2-infected BALB/C mice, X219 hydrochloride 20 mpk or X28-1 10 mpk intragastric once daily) was “began to show an increase in the body weight on Day 3”. The “in vivo fluorescence imaging, fluorescence intensity on ventral and dorsal side” value [5] was “negligible fluorescence intensity”, the “change in the body weight” value ([5]; in vivo, 20 mg/kg) was “no significant change” and the “in vitro imaging of spleen, kidneys, liver and intestine: fluorescence intensity compared with the SFTSV-Nluc vehicle group” value ([5]; in vivo, 20 mg/kg) was “significantly weaker”. For the same compound, the “spleen/body weight ratio and kidney/body weight ratio” value ([5]; in vivo, 20 mg/kg) was “consistent with those in the blank control group”, the survival rate ([5]; in vivo, 20 mg/kg) was 100% and the “viral titer and copy number in the spleen and kidney compared with the SFTSV-Nluc vehicle group” value ([5]; in vivo, 20 mg/kg) was “significantly reduced”. For the same compound, the EC50 [6] was 6.06 µM, the EC50 [7] was 0.8 µM and the inhibition at 10 µM ([7]; read-out: Inhibition rate (10 μM)) was 95.3%. The CC50 at 5 days [8] was greater than 10 µM, the AUC(0-inf) [9] was 8690 ng·h/mL and the AUC(0-t) [9] was 8290 ng·h/mL. The Cmax [9] was 2620 ng/mL, the half-life [9] was 6.09 h and the MRT inf ([9]; read-out: MRT0-∞) was 6.89 h. It also gave an AUC(0-inf) [10] of 22100 ng·h/mL, an AUC(0-t) [10] of 20000 ng·h/mL and a Cmax [10] of 8080 ng/mL. For the same compound, the half-life [10] was 6.9 h, the MRT inf ([10]; read-out: MRT0-∞) was 8.33 h and the AUC(0-inf) [11] was 3720 ng·h/mL. It also gave an AUC(0-t) [11] of 3610 ng·h/mL, a half-life [11] of 5.38 h and an MRT inf ([11]; read-out: MRT0-∞) of 4.21 h. The “Content reduction (%)” value ([12]; buffered saline solution pH 4.0, 3 h) was 5.7%, the “Content reduction (%)” value ([12]; buffered saline solution pH 4.0, 6 h) was 12.2% and the “Content reduction (%)” value ([12]; buffered saline solution pH 4.0, 9 h) was 17.5%. The “Content reduction (%)” value ([12]; buffered saline solution pH 4.0, 12 h) was 22.2%, the “Content reduction (%)” value ([12]; buffered saline solution pH 4.0, 15 h) was 26.9% and the “Content reduction (%)” value ([12]; buffered saline solution pH 4.0, 18 h) was 30.3%. The “Content reduction (%)” value ([12]; buffered saline solution pH 4.0, 21 h) was 35.9%, the “Content reduction (%)” value ([12]; buffered saline solution pH 4.0, 24 h) was 40.1% and the “Content reduction (%)” value ([12]; buffered saline solution pH 6.8, 3 h) was 8.0%. For the same compound, the “Content reduction (%)” value ([12]; buffered saline solution pH 6.8, 6 h) was 15.3%, the “Content reduction (%)” value ([12]; buffered saline solution pH 6.8, 9 h) was 22.0% and the “Content reduction (%)” value ([12]; buffered saline solution pH 6.8, 12 h) was 28.3%. For the same compound, the “Content reduction (%)” value ([12]; buffered saline solution pH 6.8, 15 h) was 33.4%, the “Content reduction (%)” value ([12]; buffered saline solution pH 6.8, 18 h) was 38.0% and the “Content reduction (%)” value ([12]; buffered saline solution pH 6.8, 21 h) was 42.9%. For the same compound, the “Content reduction (%)” value ([12]; buffered saline solution pH 6.8, 24 h) was 46.9%.
